For orientation: IC50 means the concentration that gives 50% inhibition.

Chain of Hepatocyte growth factor receptor (P08581 whole entry): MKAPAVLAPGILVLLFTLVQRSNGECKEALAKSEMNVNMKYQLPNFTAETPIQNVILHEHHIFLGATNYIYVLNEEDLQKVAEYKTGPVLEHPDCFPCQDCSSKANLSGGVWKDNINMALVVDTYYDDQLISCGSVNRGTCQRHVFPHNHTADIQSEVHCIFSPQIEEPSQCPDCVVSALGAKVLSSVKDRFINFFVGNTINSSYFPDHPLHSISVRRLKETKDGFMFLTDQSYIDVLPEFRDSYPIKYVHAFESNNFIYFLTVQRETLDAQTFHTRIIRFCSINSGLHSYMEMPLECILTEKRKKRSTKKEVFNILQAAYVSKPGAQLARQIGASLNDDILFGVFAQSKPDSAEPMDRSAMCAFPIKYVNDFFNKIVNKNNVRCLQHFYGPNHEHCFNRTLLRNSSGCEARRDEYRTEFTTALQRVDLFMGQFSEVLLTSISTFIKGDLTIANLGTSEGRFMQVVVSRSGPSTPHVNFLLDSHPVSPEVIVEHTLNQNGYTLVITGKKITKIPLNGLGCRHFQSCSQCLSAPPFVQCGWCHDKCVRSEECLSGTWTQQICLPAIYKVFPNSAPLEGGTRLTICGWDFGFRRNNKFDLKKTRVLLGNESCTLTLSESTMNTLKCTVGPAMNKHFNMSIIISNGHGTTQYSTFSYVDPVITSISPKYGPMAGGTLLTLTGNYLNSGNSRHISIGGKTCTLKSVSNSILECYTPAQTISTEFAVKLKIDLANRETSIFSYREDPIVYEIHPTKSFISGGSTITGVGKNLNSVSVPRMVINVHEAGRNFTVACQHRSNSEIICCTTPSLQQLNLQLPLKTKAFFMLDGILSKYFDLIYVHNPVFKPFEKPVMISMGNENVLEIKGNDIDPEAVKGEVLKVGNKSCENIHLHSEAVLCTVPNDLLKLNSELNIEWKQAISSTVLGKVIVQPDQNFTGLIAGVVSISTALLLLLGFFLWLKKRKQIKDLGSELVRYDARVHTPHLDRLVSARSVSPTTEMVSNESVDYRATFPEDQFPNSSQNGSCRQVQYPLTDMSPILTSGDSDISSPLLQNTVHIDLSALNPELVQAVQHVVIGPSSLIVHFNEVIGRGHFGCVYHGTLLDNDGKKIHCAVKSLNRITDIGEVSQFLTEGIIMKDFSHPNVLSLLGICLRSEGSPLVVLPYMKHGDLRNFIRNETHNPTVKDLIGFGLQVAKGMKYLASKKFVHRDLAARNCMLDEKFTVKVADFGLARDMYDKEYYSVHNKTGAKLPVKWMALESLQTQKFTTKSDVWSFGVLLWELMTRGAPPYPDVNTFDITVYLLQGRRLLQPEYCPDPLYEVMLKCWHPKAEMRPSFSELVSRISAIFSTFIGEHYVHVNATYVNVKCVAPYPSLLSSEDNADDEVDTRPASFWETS

This assay addresses Hepatocyte growth factor receptor (Homo sapiens, UniProt P08581). Put plainly: Inhibition of purified c-Met using poly(glu,tyr) as substrate after 60 mins by ELISA. A general note: ELISA stands for enzyme-linked immunosorbent assay.
Regarding `CN1C(=O)/C(=N\NC(=O)c2cccc(C(=O)N/N=C3/C(=O)N(C)c4ccccc43)c2)c2ccccc21`, the half-inhibitory concentration (IC50) was determined as 10.3 µM.
For `Cc1cccc(C(=O)Nc2ccc(C(=O)N/N=C3\C(=O)Nc4ccccc43)cc2)c1`, the midpoint of inhibition, the IC50, lay at 1.3 µM.
The result for `COc1ccc(C(=O)COC(=O)c2ccc3c(c2)C(=O)N(c2ccc(C(C)=O)cc2)C3=O)cc1` reads 3.7 µM; that for `O=[N+]([O-])c1cc(-c2ccc(/C=N\n3cnnc3N/N=C/c3ccc(-c4ccc(Cl)c([N+](=O)[O-])c4)o3)o2)ccc1Cl`, 3.3 µM.
`O=C(CCCCCC(=O)N/N=C/c1cc2c(cc1[N+](=O)[O-])OCO2)N/N=C/c1cc2c(cc1[N+](=O)[O-])OCO2` gave an IC50 of 0.78 µM.
With `O=C1Nc2ccccc2C1=NNC(=O)c1ccc([N+](=O)[O-])cc1`, half-maximal inhibition (IC50) required 28.3 µM.
With `O=C1Nc2ccccc2/C1=N/NC(=O)c1cc2ccccc2cc1O` the figure was 4.3 µM; with `CN1C(=O)/C(=N\NC(=O)c2ccc([N+](=O)[O-])cc2)c2ccccc21`, 12.3 µM; with `Cc1ccc(NC(=O)CN2C(=O)/C(=N\NC(=O)c3ccc(N)cc3)c3ccccc32)cc1`, 15.8 µM.
With `O=C(N/N=C1\C(=O)N(CN2CCOCC2)c2ccc(Br)cc21)c1ccccc1` the figure was 3.5 µM; with `COc1ccc(C(=O)N/N=C2\C(=O)N(CN3CCOCC3)c3ccc(Br)cc32)cc1`, 2.2 µM.

The record behind these values is ChEMBL document CHEMBL1777704, “Identification and synthesis of N'-(2-oxoindolin-3-ylidene)hydrazide derivatives against c-Met kinase” (Bioorg Med Chem Lett, 2011).
